Test results: ChEMBL document CHEMBL1127193, “High-purity porcine pancreatic lipase: novel effects in catalyzing hydrolysis of esters derived from bicyclo[3.2.0]hept-2-EN-6-OLS” (Bioorg Med Chem Lett, 1993)

Columns and labels:
[1] = biological target: T1, Pancreatic triacylglycerol lipase (Homo sapiens, UniProt P16233); assay: Tested for hydrolysis with 0.2 ug/mL of PPL (porcine pancreatic lipase) at a compound dose of 0.2 g; design: species or system Sus scrofa; settings: target entry is the homologue from another species
T1 sequence (P16233 whole entry): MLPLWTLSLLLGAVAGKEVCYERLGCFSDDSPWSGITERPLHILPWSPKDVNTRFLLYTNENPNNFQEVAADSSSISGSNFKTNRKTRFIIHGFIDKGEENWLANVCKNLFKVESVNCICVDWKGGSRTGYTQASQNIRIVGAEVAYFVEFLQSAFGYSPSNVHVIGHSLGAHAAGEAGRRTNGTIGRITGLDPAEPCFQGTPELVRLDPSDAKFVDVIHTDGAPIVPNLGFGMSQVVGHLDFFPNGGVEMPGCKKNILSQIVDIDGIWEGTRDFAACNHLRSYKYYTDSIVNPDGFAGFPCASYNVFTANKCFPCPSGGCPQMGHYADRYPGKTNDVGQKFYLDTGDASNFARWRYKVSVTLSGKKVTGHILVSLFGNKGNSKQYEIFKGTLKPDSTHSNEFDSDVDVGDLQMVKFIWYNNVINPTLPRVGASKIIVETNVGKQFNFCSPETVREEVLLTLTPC

[2] = biological target: T1, Pancreatic triacylglycerol lipase; assay: Tested for hydrolysis with 0.2 ug/mL of PPL (porcine pancreatic lipase), 1.5 ug/mL of colipase and 4 mM sodium taurodeoxycholatet (NaTDC) at a compound concentration of 0.2 g; design: species or system Sus scrofa; settings: target entry is the homologue from another species
[3] = biological target: T2, Pancreatic triacylglycerol lipase (Homo sapiens) (UniProt P16233); settings: Sus scrofa
T2 sequence (whole entry): T1 sequence (P16233 whole entry)

[4] = biological target: T2, Pancreatic triacylglycerol lipase (Homo sapiens); settings: Sus scrofa; remark: listed apart in the source
[5] = biological target: T2, Pancreatic triacylglycerol lipase (Homo sapiens); assay: Tested for hydrolysis with 1.0 ug/mL of PPL (porcine pancreatic lipase) at the compound dose of 0.2 g; settings: Sus scrofa; target entry is the homologue from another species
[6] = biological target: T2, Pancreatic triacylglycerol lipase (Homo sapiens); assay: Tested for hydrolysis with 1.0 ug/mL of PPL (porcine pancreatic lipase), 2.2 ug/mL of colipase and 4 mM of sodium taurodeoxycholatet (NaTDC) at the compound dose of 0.2 g; settings: Sus scrofa; target entry is the homologue from another species
[7] = biological target: T2, Pancreatic triacylglycerol lipase (Homo sapiens); assay: Tested for hydrolysis with 200 ug/mL of PPL (porcine pancreatic lipase) and sodium taurodeoxycholatet (NaTDC) at the compound dose of 0.2 g; settings: Sus scrofa; target entry is the homologue from another species
[8] = biological target: T2, Pancreatic triacylglycerol lipase (Homo sapiens); assay: Tested for hydrolysis with 20 ug/mL of PPL (porcine pancreatic lipase) and sodium taurodeoxycholatet (NaTDC) at the compound dose of 0.2 g; settings: Sus scrofa; target entry is the homologue from another species
[9] = biological target: T2, Pancreatic triacylglycerol lipase (Homo sapiens); assay: Tested for hydrolysis with 0.2 ug/mL of PPL (porcine pancreatic lipase) at the compound dose of 0.2 g; settings: Sus scrofa; target entry is the homologue from another species
[10] = biological target: T2, Pancreatic triacylglycerol lipase (Homo sapiens); assay: Tested for hydrolysis with 0.5 ug/mL of PPL (porcine pancreatic lipase), 1.5 ug/mL of colipase and 4 mM of sodium taurodeoxycholatet (NaTDC) at the compound dose of 0.2 g; settings: Sus scrofa; target entry is the homologue from another species
[11] = biological target: T2, Pancreatic triacylglycerol lipase (Homo sapiens); assay: Tested for hydrolysis with 80 ug/mL of PPL (porcine pancreatic lipase) at the compound dose of 0.1 g; settings: Sus scrofa; target entry is the homologue from another species

CCCC(=O)OCC(COC(=O)CCC)OC(=O)CCC [TRIBUTYRIN]
kcat [1]: 1100 s⁻¹ | kcat [2]: < 1 s⁻¹ | k cat [3]: 4900 s⁻¹ | k cat [4]: 5100 s⁻¹

CCCC(=O)O[C@@H]1C[C@@H]2C=CC[C@@H]21.CCCC(=O)O[C@@H]1C[C@H]2C=CC[C@@H]21
k cat [5]: 420 s⁻¹ | k cat [6]: 400 s⁻¹

CCCC(=O)O[C@H]1C[C@@H]2C=CC[C@H]12
k cat [7]: < 5 s⁻¹ | k cat [8]: < 4 s⁻¹

CCCC(=O)O[C@@H]1C[C@@H]2C=CC[C@@H]21
k cat [9]: 3870 s⁻¹ | k cat [10]: 3560 s⁻¹

CC(=O)O[C@@H]1C[C@@H]2C=CC[C@@H]21
k cat [11]: < 9 s⁻¹
